Patent US7101878B1 (Agouron Pharmaceuticals, Inc., priority 1998, dated 2006)
Read-outs that look alike come from different tables or passages of the source.

Target: T1, human GnRH receptor (Homo sapiens, UniProt P30968)
T1 construct: expressed in transfected cells; host or cells: HEK 293 (hGnRH-R/293, from Dr. Stuart Sealfon)
T1 sequence (P30968 1-328): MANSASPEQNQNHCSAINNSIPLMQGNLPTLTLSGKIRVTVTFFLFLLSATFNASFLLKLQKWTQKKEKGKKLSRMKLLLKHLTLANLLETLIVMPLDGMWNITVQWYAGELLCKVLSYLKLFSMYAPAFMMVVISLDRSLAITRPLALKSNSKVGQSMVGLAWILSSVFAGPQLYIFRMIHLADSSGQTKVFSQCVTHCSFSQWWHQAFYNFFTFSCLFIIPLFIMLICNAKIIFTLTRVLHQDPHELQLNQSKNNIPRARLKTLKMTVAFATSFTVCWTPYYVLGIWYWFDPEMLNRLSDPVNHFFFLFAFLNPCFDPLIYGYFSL
Test: Radioligand binding, 125I-GnRH-A displacement, membranes of HEK 293 cells with human GnRH receptor
Details: for remaining activity at 10 µM: read-out: S%R 10 uM hGnRHR; for remaining activity at 1 µM: 1 uM compound, read-out: S%R 1 uM hGnRHR; for IC50: read-out: hGnRH IC50
Procedure, shortened: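 Bound tracer was separated by filtration through polyethyleneimine-soaked GF/C filters and counted by liquid scintillation. IC50 from curve fitting; other species were tested under the same conditions.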

[1] = 1 uM, read-out: % Inhib. @ 1 uM hGnRH
[2] = 1 h, repeat of % Inhib. at 1 uM, read-out: Repeats @ 1 uM hGnRH
[3] = 1 h, substrate remaining, 10 uM compound, closer to zero = closer to 100% inhibition
[4] = 1 h, substrate remaining, closer to zero = closer to 100% inhibition

Structure (SMILES)	inhibition at 1 µM [1]	inhibition at 1 µM [2]	other results
Cc1cc2c(cc1Cc1ccc(C(=O)NC3CCCc4ccccc43)o1)C(C)(C)CCC2(C)C (stereo not shown) [drawing 1150]			% Inhib. @ 1 uM hGnRH (1 uM): 16%; Repeats @ 1 uM hGnRH (repeat of % Inhib. at 1 uM): 32
Cc1cc2c(cc1Cc1ccc(C(=O)NCCNCCN3CCCC3)o1)C(C)(C)CCC2(C)C	-5%	0%	
Cc1cc2c(cc1Cc1ccc(C(=O)NCCCCNc3nccc(NCC4CCCO4)n3)o1)C(C)(C)CCC2(C)C (stereo not shown) [drawing 1047]	27%	38%	
Cc1cc2c(cc1Cc1ccc(C(=O)Nc3nc[nH]n3)o1)C(C)(C)CCC2(C)C [Compound 324]			remaining activity at 10 µM [3]: 27%
Cc1cc2c(cc1Cc1ccc(C(=O)NCCc3ccccc3Cl)o1)C(C)(C)CCC2(C)C [Compound 418]			remaining activity at 1 µM [4]: 42%
COCCNC(=O)c1ccc(Cc2cc3c(cc2C)C(C)(C)CCC3(C)C)o1 [Compound 432]			remaining activity at 1 µM [4]: 42%
Cc1ccccc1CNC(=O)c1ccc(Cc2cc3c(cc2C)C(C)(C)CCC3(C)C)o1 [Compound 413]			remaining activity at 1 µM [4]: 16%
COc1cccc(CNC(=O)c2ccc(Cc3cc4c(cc3C)C(C)(C)CCC4(C)C)o2)c1 [drawing 1188]	76%	79%	
Cc1cc2c(cc1Cc1ccc(C(=O)NCc3cccs3)o1)C(C)(C)CCC2(C)C [Compound 415]			remaining activity at 1 µM [4]: 18%
Cc1cc2c(cc1Cc1ccc(C(=O)NCc3ccc(F)c(F)c3)o1)C(C)(C)CCC2(C)C [drawing 1030]	55%	60%	
Cc1cnc(CNC(=O)c2ccc(Cc3cc4c(cc3C)C(C)(C)CCC4(C)C)o2)cn1 [drawing 1009]			inhibition at 1 µM (1 h, read-out: Repeats @ 1 uM hGnRH): 107%; inhibition at 1 µM (read-out: % Inhib. @ 1 uM hGnRH): 102%
Cc1cc2c(cc1Cc1ccc(C(=O)NCc3ccc(N(C)C)cc3)o1)C(C)(C)CCC2(C)C [Compound 447]			remaining activity at 1 µM [4]: 18%
Cc1cc2c(cc1Cc1ccc(C(=O)Nc3nnc(C4CC4)s3)o1)C(C)(C)CCC2(C)C [Compound 336]			remaining activity at 10 µM [3]: 57%
COc1cccc(OC)c1NC(=O)c1ccc(Cc2cc3c(cc2C)C(C)(C)CCC3(C)C)o1 [Compound 389]			remaining activity at 10 µM (1 h): 3%
COc1ccc(NC(=O)c2ccc(Cc3cc4c(cc3C)C(C)(C)CCC4(C)C)o2)c(Oc2ccc(Cl)cc2)n1 [Compound 391]			remaining activity at 10 µM [3]: 48%
Cc1cc2c(cc1Cc1ccc(C(=O)NCCOc3ccccc3)o1)C(C)(C)CCC2(C)C [drawing 1182]	93%	95%	
Cc1cc2c(cc1Cc1ccc(C(=O)N(C)[C@H](C)[C@H](O)c3ccccc3)o1)C(C)(C)CCC2(C)C	-10%	-6%	
Cc1cc2c(cc1Cc1ccc(C(=O)Nc3ccc(S(=O)(=O)Nc4nccs4)cc3)o1)C(C)(C)CCC2(C)C [Compound 29]			IC50: 1420 nM
Cc1cc2c(cc1Cc1ccc(C(=O)NCCCNC(=O)c3ccc(Cc4cc5c(cc4C)C(C)(C)CCC5(C)C)o3)o1)C(C)(C)C=CC2(C)C [Compound 27]			IC50: > 10000 nM
COc1cccc(CNC(=O)c2ccc(Cc3cc4c(cc3C)C(C)(C)CCC4(C)C)o2)c1 [Compound 439]			remaining activity at 1 µM [4]: 23%
COCCNC(=O)c1ccc(Cc2cc3c(cc2C)C(C)(C)CCC3(C)C)o1 [drawing 1155]	55%	61%	
COc1cc(OC)c(NC(=O)c2ccc(Cc3cc(C(=O)C(C)(C)C)c(OC)cc3OC)o2)c(OC)c1 [Compound 229]			IC50: 250 nM
Cc1cc2c(cc1Cc1ccc(C(=O)NCCSCCCc3ccc(CN(C)C)o3)o1)C(C)(C)CCC2(C)C [Compound 65]			IC50: 710 nM
Cc1cc2c(cc1Cc1ccc(C(=O)N3CCN(CCN(Cc4ccccn4)C(=O)c4ccc(Cc5cc6c(cc5C)C(C)(C)CCC6(C)C)o4)CC3)o1)C(C)(C)CCC2(C)C [Compound 213]			IC50: > 10000 nM
COc1cc(OC)c(CNC(=O)c2ccc(Cc3cc4c(cc3C)C(C)(C)CCC4(C)C)o2)c(OC)c1 [drawing 1094]	-10%	13%	

Continued, in another order:

inhibition at 1 µM [1]	inhibition at 1 µM [2]	Structure (SMILES)	other results
15%	15%	Cc1cc2c(cc1Cc1ccc(C(=O)NCCN3CCCCC3)o1)C(C)(C)CCC2(C)C [drawing 982]	
-2%	3%	Cc1cc2c(cc1Cc1ccc(C(=O)N3CCN(c4ncccn4)CC3)o1)C(C)(C)CCC2(C)C [drawing 1124]	
71%	76%	Cc1cc2c(cc1Cc1ccc(C(=O)NCc3ccc(S(N)(=O)=O)cc3)o1)C(C)(C)CCC2(C)C [drawing 1052]	
16%	3%	Cc1cc2c(cc1Cc1ccc(C(=O)NC(CO)Cc3ccc(Cl)cc3)o1)C(C)(C)CCC2(C)C (stereo not shown)	
-11%	-7%	Cc1cc2c(cc1Cc1ccc(C(=O)N(C)CCc3ccccn3)o1)C(C)(C)CCC2(C)C	
10%	9%	Cc1cc2c(cc1Cc1ccc(C(=O)N(C)CCc3ccccc3)o1)C(C)(C)CCC2(C)C	
69%	74%	Cc1cc2c(cc1Cc1ccc(C(=O)NCc3cccnc3)o1)C(C)(C)CCC2(C)C [drawing 1067]	
15%	26%	Cc1cc2c(cc1Cc1ccc(C(=O)N[C@H](CO)c3ccccc3)o1)C(C)(C)CCC2(C)C	
62%	68%	Cc1cc2c(cc1Cc1ccc(C(=O)NCc3cccc(Br)c3)o1)C(C)(C)CCC2(C)C [drawing 1235]	
20%	22%	Cc1cc2c(cc1Cc1ccc(C(=O)N(C)CC(O)c3ccccc3)o1)C(C)(C)CCC2(C)C (stereo not shown)	
15%	21%	Cc1cc2c(cc1Cc1ccc(C(=O)NCCc3cccc(Cl)c3)o1)C(C)(C)CCC2(C)C	
7%	9%	Cc1cc2c(cc1Cc1ccc(C(=O)N(Cc3ccccc3F)C3CCN(Cc4ccccc4)C3)o1)C(C)(C)CCC2(C)C (stereo not shown)	
-10%	-6%	Cc1cc2c(cc1Cc1ccc(C(=O)NCc3cccc(-c4ccccc4)c3)o1)C(C)(C)CCC2(C)C [drawing 1190]	
-10%	-8%	Cc1cc2c(cc1Cc1ccc(C(=O)NCCCNCc3ccc(Cl)cc3)o1)C(C)(C)CCC2(C)C	
18%	9%	Cc1cc2c(cc1Cc1ccc(C(=O)NCC(F)(F)F)o1)C(C)(C)CCC2(C)C [drawing 1018]	
20%	24%	Cc1cc2c(cc1Cc1ccc(C(=O)NCC3CCNCC3)o1)C(C)(C)CCC2(C)C [drawing 981]	
19%	29%	Cc1cc2c(cc1Cc1ccc(C(=O)NCCc3ccc(O)cc3)o1)C(C)(C)CCC2(C)C	
62%	67%	Cc1cc2c(cc1Cc1ccc(C(=O)NCc3ccccn3)o1)C(C)(C)CCC2(C)C [drawing 984]	
-10%	-15%	Cc1cc2c(cc1Cc1ccc(C(=O)NCc3c(Cl)cccc3Oc3ccccc3)o1)C(C)(C)CCC2(C)C	
49%	58%	Cc1cc2c(cc1Cc1ccc(C(=O)NC3CC3)o1)C(C)(C)CCC2(C)C [drawing 1149]	
74%	81%	Cc1cc2c(cc1Cc1ccc(C(=O)NCc3ccc(F)cc3F)o1)C(C)(C)CCC2(C)C [drawing 1197]	
25%	28%	Cc1cc2c(cc1Cc1ccc(C(=O)NCC(O)c3ccc(O)cc3)o1)C(C)(C)CCC2(C)C (stereo not shown)	
